# Tests used:
# [1] = tested on: Enterococcus faecium isolates (n = 104); experiment: Broth microdilution MIC, clinical isolate panel; format: cell-based; details: Enterococcus faecium (n = 104)
# Procedure: (§1) Comparator antibiotics were supplied by Micromyx, and stock solutions were prepared on the first day of testing using solvents recommended by CLSI (1). Stock solutions of all compounds were made at 40× the final testing concentration and stored at −80° C. prior to testing. Information regarding compound source, catalog and lot number, testing concentrations and drug diluent for the comparators and test agent are detailed below in Table 3.
# (§2) The test organisms evaluated in this study consisted of clinical isolates from the Micromyx Repository and reference isolates from the American Type Culture Collection (ATCC; Manassas, Va.). The clinical isolates were obtained from USA hospitals. Upon initial receipt at Micromyx, the organisms were sub-cultured onto an appropriate agar medium. Following incubation, colonies were harvested from these plates and cell suspensions prepared and frozen at −80° C. with a cryoprotectant. Prior to testing, the isolates were streaked from frozen vials onto Trypticase Soy Agar with 5% sheep blood (Becton Dickenson [BD]; Sparks, Md.; Lot Nos. 7173618, 7166759, 7208688, 72144895, 7228505 and Remel Lenexa, Kans. Lot No. 212574). Plates were incubated at 35° C. overnight.
# (§3) Mueller Hinton II broth (MHB II; BD; Lot Nos. 6258541 and 7143896) was used for MIC testing of aerobic organisms.
# (§4) MIC values were determined using a broth microdilution procedure described by CLSI (1, 3). Automated liquid handlers (Multidrop 384, Labsystems, Helsinki, Finland; Biomek 2000 and Biomek FX, Beckman Coulter, Fullerton Calif.) were used to conduct serial dilutions and liquid transfers.
# (§5) To prepare the drug mother plates, which would provide the serial drug dilutions for the replicate daughter plates, the wells of columns 2-12 of standard 96-well microdilution plates (Costar 3795) were filled with 150 μl of the designated diluent for each row of drug. The test articles and comparator compounds (300 μl at 40× the highest concentration to be tested) were dispensed into the appropriate wells in column 1. The Biomek 2000 was then used to make 2-fold serial dilutions in the mother plates from column 1 through column 11. The wells of Column 12 contained no drug and served as the organism growth control wells for the assay.
# (§6) The daughter plates were loaded with 185 μL per well of MHB II using the Multidrop 384. The daughter plates were completed on the Biomek FX instrument which transferred 5 µL of drug solution from each well of a mother plate to the corresponding well of each daughter plate in a single step. A standardized inoculum of each test organism was prepared per CLSI methods (1). The inoculum for each organism was dispensed into sterile reservoirs divided by length (Beckman Coulter), and the Biomek 2000 was used to inoculate the plates. Daughter plates were placed on the Biomek 2000 work surface in reverse orientation so that inoculation took place from low to high drug concentration.
# (§7) Plates were stacked 3-4 high, covered with a lid on the top plate, placed in plastic bags, and incubated at 35° C. for 16 to 20 hrs. Following incubation, the microplates were removed from the incubator and viewed from the bottom using a plate viewer. […] The MIC was read and recorded as the lowest concentration of drug that inhibited visible growth of the organism.
# (§8) Clinical breakpoints to determine percent resistance within a given organism group were obtained from CLSI (3), with the exception of colistin for K. pneumoniae, Enterobacter spp., and E. coli, which are only available from EUCAST.
# [2] = tested on: Staphylococcus aureus isolates (n = 104); experiment: Broth microdilution MIC, clinical isolate panel; format: cell-based
# Procedure: as §1, §2, §3, §4, §5, §6, §7, §8
structure (smiles),measurement,setting,value
CN[C@H](CC(C)C)C(=O)N[C@H]1C(=O)N[C@@H](CC(N)=O)C(=O)N[C@H]2C(=O)N[C@H]3C(=O)N[C@H](C(=O)N[C@H](C(=O)O)c4cc(O)cc(O)c4-c4cc3ccc4O)[C@H](O)c3ccc(c(Cl)c3)Oc3cc2cc(c3O[C@@H]2O[C@H](CO)[C@@H](O)[C@H](O)[C@H]2O[C@H]2C[C@](C)(N)[C@H](O)[C@H](C)O2)Oc2ccc(cc2Cl)[C@H]1O [Vancomycin],"% R (percent of isolates resistant, clinical breakpoints)",[1],47.1%
same,"% R (percent of isolates resistant, clinical breakpoints)","[2]; Staphylococcus aureus (n = 104), all methicillin-resistant",0%
same,MIC,"[2]; Staphylococcus aureus, read-out: Mode (MIC)",1 mg/L

# From US20200071361A1, “ENGINEERED ANTIMICROBIAL AMPHIPHILIC PEPTIDES AND METHODS OF USE” (priority 2017, published 2020)
